System: SMN2-luciferase reporter
Assay: SMN2-luciferase reporter qHTS assay
Assay type: cell-based, human
Parameters: key to Curve Class: A curve class of 1.1 is a full agonist/antagonist; a curve class of 4 indicates the compound is inactive
Conditions: for Curve Class: agonist/antagonist character of the concentration-response, lower values = more significant concentration-response; for Increased SMN2 activity: percent increase (or decrease) in SMN2 levels compared to control in which no test compound is added
Source text: A cell-based quantitative high throughput screening (qHTS) assay is used to identify compounds able to increase SMN production. The assay uses a SMN2-luciferase reporter to determine if exon 7 of the SMN gene is expressed, which correlates with increased full-length SMN production from the SMN2 gene. As controls, a homologue SMN1-luciferase reporter cell line looks for variations in expression of the SMN1 gene and a cell line with just the luciferase reporter looks at the capacity of the compounds to inhibit luciferase. In addition, increments in SMN production by lead compounds were confirmed by Western-Blot analysis using SMA patient fibroblasts.
For the qHTS assay, concentration-response profiles are generated at the primary-screen level for each library compound to minimize the number of false positives. A dilution series consisting of seven points separated by five-fold concentration differences is prepared for each compound, yielding a concentration series that spans a range of about four orders of magnitude, for example from a high concentration of 50 micromolar to a low concentration of 3.2 nanomolar and providing adequate data for fitting to a Hill equation. For the assay, the SMN2 reporter cell line was plated at a density of ˜2000 cells/well in complete media (phenol red free DMEM, 10% detacl calf serum, and 1× pen/strep), in 1536 well white solid bottom tissue culture treated plates (Greiner). Cells were allowed to adhere and recover at 37 C in 5% CO2 for 10-12 hours. Compounds were added to the plates by a Pintool (Kalypsys) at a volume of 23 nl/well. Cells were incubated in the presence of compounds for 2 days at 37 C in 5% CO2. In order to quantify luciferase reporter levels, 3 ul/well of OneGlo (Promega) was added to each well and incubated at room temperature for 10 minutes. Luminescence from the reporter in each well is measured using a Viewlux CCD based imager (Perkin Elmer) with an integration time of 30 seconds and a binning of 2× in luminescence mode. Sodium butyrate was used as the positive control compound for luciferase induction and a column of 32 wells of 9.2 mM compound on each plate was used to monitor assay performance.
The SMN reporters used herein are modified from those previously described (M. L. Zhang, C. L. Lorson, E. J. Androphy and J. Zhou, An in vivo reporter system for measuring increased inclusion of exon 7 in SMN2 mRNA: potential therapy of SMA, Gene Ther 8 (2001), pp. 1532-1538.)
The sequence of the SMN1 reporter vector used herein is given in SEQ ID NO.:1, while that of the SMN2 reporter vector is given in SEQ ID NO.:2.
Each of the SMN reporters is constructed from three separate DNA fragments: (1) an SMN promotor sequence from the transcriptional reporter p 4.0T (SMN1) or p3.4C (SMN2) described in Monani, et al. Biochimica et Biophysica Acta 1445 (1999) 330-336; (2) a modification of the firefly luciferase splicing reporter for SMN1 or SMN2 described by Zhang et al; and (3) a 744 bp SMN cDNA fragment.
The 3.7 kB SMN1 promoter fragment is obtained by restriction of p4.0T with BglII and SacII. A 3.4 kB SMN2 promoter fragment is obtained by restriction of p3.4C with KpnI and SacII; a 300 bp BglII/KpnI fragment from p4.0T is then added to the 3.4 kB SMN2 promoter fragment to yield the final 3.7 kB SMN2 promoter fragment.
The modified SMN1 and SMN2 firefly luciferase splicing reporters are obtained by removing 4 kB of intron 6 in the original reporter system by restriction with SmaI/Swa followed by religation of the reporter. A 4 kB luciferase splicing reporter is then obtaind by digestion with XhoI and NotI.
Ths SMN cDNA fragment is obtained by generating the productof a polymerase chain reaction (PCR) on a cDNA preparation using […] (SEQ ID NO:3) as the forward primer and Tatctcgagtggtccagaaggaaatggaggcagcc (SEQ ID NO:4) as the reverse primer. The PCR product is then digested with XhoI and SacII. […]

Row | Structure (SMILES) | Curve Class | Increased SMN2 activity [%]
1 | Cc1ccc(-c2nnc(N3CCC(C(N)=O)CC3)s2)cc1 [Example 133, 1-(5-P-Tolyl-1,3,4-Thiadiazol-2-yl)Piperidine-4-Carboxamide] | 1.2 | 54
2 | NC(=O)C1CCN(c2nc(-c3ccc(-c4ccccc4)cc3)cs2)CC1 [Example 28, 1-(4-(Biphenyl-4-yl)Thiazol-2-yl)Piperidine-4-Carboxamide] | 2.2 | 58.07
3 | Brc1ccc(-c2csc(N3CCCCC3)n2)cc1 [Example 32, 4-(4-Bromophenyl)-2-(Piperidin-1-yl)Thiazole] | 2.1 | 272.6
4 | Brc1ccc(-c2csc(N3CCC(c4nnn[nH]4)CC3)n2)cc1 [Example 112, 2-(4-(1H-Tetrazol-5-yl)Piperidin-1-yl)-4-(4-Bromophenyl)Thiazole] | 2.1 | 66.77
5 | NC(=O)C1CCN(c2nc(-c3ccc4occc(=O)c4c3)cs2)CC1 [Example 50, 1-(4-(4-Oxo-4H-Chromen-6-yl)Thiazol-2-yl)Piperidine-4-Carboxamide] | 2.1 | 589.68
6 | NC(=O)C1CCN(c2ncc(-c3cccc(N4CCOCC4)c3)s2)CC1 [Example 139, 1-(5-(3-Morpholinophenyl)Thiazol-2-yl)Piperidine-4-Carboxamide] | 1.1 | 275.2
7 | CC(=O)NC1CCN(c2nc(-c3ccc(Br)cc3)cs2)CC1 [Example 113, N-(1-(4-(4-Bromophenyl)Thiazol-2-yl)Piperidin-4-yl)Acetamide] | −1.4 | −56.62
8 | NC(=O)C1CCN(c2nc(-c3cccc([N+](=O)[O-])c3)cs2)CC1 [Example 37, 1-(4-(3-Nitrophenyl)Thiazol-2-yl)Piperidine-4-Carboxamide] | 2.4 | 20.29
9 | N#CC1CCN(c2nc(-c3ccc(Br)cc3)cs2)CC1 [Example 102, 1-(4-(4-Bromophenyl)Thiazol-2-yl)Piperidine-4-Carbonitrile] | 2.2 | 77.87
10 | CN(C)c1cccc(-c2nccc(N3CCC(C(N)=O)CC3)n2)c1 [Example 104, 1-(2-(3-(Dimethylamino)Phenyl)Pyrimidin-4-yl)Piperidine-4-Carboxamide] | 2.1 | 306.3
11 | NC(=O)C1CCN(c2ncc(-c3ccc4c(c3)OCCO4)s2)CC1 [Example 120, 1-(5-(2,3-Dihydrobenzo[B][1,4]Dioxin-6-yl)Thiazol-2-yl)Piperidine-4-Carboxamide] | 1.1 | 424.6
12 | NC(=O)C1CCN(c2ncc(-c3ccc(Cl)cc3)s2)CC1 [Example 122, 1-(5-(4-Chlorophenyl)Thiazol-2-yl)Piperidine-4-Carboxamide] | 1.1 | 498.3
13 | NC(=O)C1CCN(c2nc(-c3ccccc3Cl)cs2)CC1 [Example 39, 1-(4-(2-Chlorophenyl)Thiazol-2-yl)Piperidine-4-Carboxamide] | 2.2 | 57.61
14 | COc1ccc(-c2cnc(N3CCC(C(N)=O)CC3)s2)cc1OC [Example 150, 1-(5-(3,4-Dimethoxyphenyl)Thiazol-2-yl)Piperidine-4-Carboxamide] | 1.1 | 209.7
15 | NC1CCN(c2nc(-c3ccc(Br)cc3)cs2)CC1 [Example 111, 1-(4-(4-Bromophenyl)Thiazol-2-yl)Piperidin-4-Amine] | 1.1 | 182.6
16 | NC(=O)C1CCN(c2nccc(-c3ccc(Br)cc3)n2)CC1 [Example 80, 1-(4-(4-Bromophenyl)Pyrimidin-2-yl)Piperidine-4-Carboxamide] | 1.1 | 387
17 | CN(C)C(=O)C1CCN(c2nc(-c3ccc(Br)cc3)cs2)CC1 [Example 71, 1-(4-(4-Bromophenyl)Thiazol-2-yl)-N,N-Dimethylpiperidine-4-Carboxamide] | 2.4 | 42.71
18 | NC(=O)C1CCN(c2nc(-c3cccc(F)c3)cs2)CC1 [Example 33, 1-(4-(3-Fluorophenyl)Thiazol-2-yl)Piperidine-4-Carboxamide] | 2.2 | 64
19 | O=C(Nc1ccccc1)C1CCN(c2nc(-c3ccc(Br)cc3)cs2)CC1 [Example 72, 1-(4-(4-Bromophenyl)Thiazol-2-yl)-N-Phenylpiperidine-4-Carboxamide] | 1.1 | 262.4
20 | CN(C)c1cccc(-c2cnc(N3CCC(c4ncc[nH]4)CC3)s2)c1 [Example 136, 3-(2-(4-(1H-Imidazol-2-yl)Piperidin-1-yl)Thiazol-5-yl)-N,N-Dimethylaniline] | 1.1 | 188.2
21 | NC(=O)C1CCN(c2nccc(-c3ccc4c(c3)OCCCO4)n2)CC1 [Example 128, 1-(4-(3,4-Dihydro-2H-Benzo[B][1,4]Dioxepin-7-yl)Pyrimidin-2-yl)Piperidine-4-Carboxamide] | 1.1 | 234.2
22 | NC(=O)C1CCN(c2nc(-c3ccccc3F)cs2)CC1 [Example 38, 1-(4-(2-Fluorophenyl)Thiazol-2-yl)Piperidine-4-Carboxamide] | 1.1 | 274.6
23 | CC(=O)C1CCN(c2ncc(-c3cccc(N(C)C)c3)s2)CC1 [Example 141, 1-(1-(5-(3-(Dimethylamino)Phenyl)Thiazol-2-yl)Piperidin-4-yl)Ethanone] | 1.1 | 224.6
24 | NC(=O)C1CCN(c2ncnc(-c3ccc4c(c3)OCCCO4)n2)CC1 [Example 144, 1-(4-(3,4-Dihydro-2H-Benzo[B][1,4]Dioxepin-7-yl)-1,3,5-Triazin-2-yl)Piperidine-4-Carboxamide] | 1.1 | 186.2
25 | NC(=O)C1CCN(c2nc(-c3ccc4c(c3)OCC4)cs2)CC1 [Example 93, 1-(4-(2,3-Dihydrobenzofuran-6-yl)Thiazol-2-yl)Piperidine-4-Carboxamide] | 2.1 | 401.7
26 | NC(=O)C1CCN(c2nc(-c3ccc([N+](=O)[O-])cc3)cs2)CC1 [Example 29, 1-(4-(4-Nitrophenyl)Thiazol-2-yl)Piperidine-4-Carboxamide] | 2.1 | 254.3
27 | NC(=O)C1CCN(c2nccc(-c3ccc4c(c3)OCCO4)n2)CC1 [Example 129, 1-(4-(2,3-Dihydrobenzo[B][1,4]Dioxin-6-yl)Pyrimidin-2-yl)Piperidine-4-Carboxamide] | 1.1 | 364.3
28 | Cn1ccc2cc(-c3csc(N4CCC(C(N)=O)CC4)n3)ccc21 [Example 65, 1-(4-(1-Methyl-1H-Indol-5-yl)Thiazol-2-yl)Piperidine-4-Carboxamide] | 1.1 | 534
29 | NC(=O)C1CCN(c2ncc(-c3ccc4c(c3)OCO4)s2)CC1 [Example 125, 1-(5-(Benzo[D][1,3]Dioxol-5-yl)Thiazol-2-yl)Piperidine-4-Carboxamide] | 1.1 | 589.875

Source: patent publication US20130096160A1, “ARYLTHIAZOLYL PIPERIDINES AND RELATED COMPOUNDS AS MODULATORS OF SURVIVAL MOTOR NEURON (SMN) PROTEIN PRODUCTION” (Secretary, Department of Health and Human Services, priority 2010, published 2013)
